Our source for the melting point values is patent publication US6949536B2, “Sulfonylbenzene compounds as anti-inflammatory/analgesic agents” (Pfizer, Inc., priority 1998, dated 2005).

Counter-ions that a name gives are not always drawn.

The term melting point denotes the temperature of the solid-liquid transition. Regarding `Cc1ccc(-c2ccc(S(C)(=O)=O)cc2)n1-c1ccc(-c2ccoc2)c(Cl)c1` [Example 41, 1-[3-Chloro-4-(3-furyl)phenyl]-2-methyl-5-[4-(methylsulfonyl)phenyl]-1H-pyrrole], the melting point lay within 165 to 168 °C. As to `Cc1noc(-c2ccc(S(C)(=O)=O)cc2)c1-c1ccc(-c2cscn2)cc1` [Example 191, 3-Methyl-5-[4-(methylsulfonyl)phenyl]-4-[4-(1,3-thiazol-4-yl)phenyl]isoxazole], the melting point came out at 119 °C. Next, `Cc1nc(-c2ccc(-c3ccco3)cc2)c(-c2ccc(S(C)(=O)=O)cc2)o1` [Example 51, 4-[4-(2-Furyl)phenyl]-2-methyl-5-[4-(methylsulfonyl)phenyl]oxazole]: 143 to 144 °C; `Cc1nc(-c2ccc(-c3cccs3)cc2)c(-c2ccc(S(C)(=O)=O)cc2)o1` [Example 50, 2-Methyl-5-[4-(methylsulfonyl)phenyl]-4-[4-(2-thienyl)phenyl]oxazole]: 183 to 185 °C. `Cc1cc(-c2cscn2)ccc1-c1cc(C(F)(F)F)nn1-c1ccc(S(C)(=O)=O)c(F)c1` (as salt: methanesulfonate) [Example 187, 1-[3-Fluoro4-(methylsulfonyl)phenyl]-5-[2-methyl-4-(4-thiazolyl)phenyl]-3-trifluoromethyl-1H-pyrazole] displayed a melting point of 131.9 °C. The result for `CS(=O)(=O)c1ccc(C2=C(c3ccc(-c4cccs4)cc3)C(=O)OC2)cc1` [Example 33, 3-[4-(2-Thienyl)phenyl]-4-[4-(methylsulfonyl)phenyl]-2-(5H)-furanone] reads 198 to 201 °C; that for `CS(=O)(=O)c1ccc(-n2nc(C(F)(F)F)cc2-c2ccc(-c3cscn3)cc2)cc1Cl` [Example 158, 1-[3-Chloro-4-(methylsulfonyl)phenyl]-5-[4-(4-thiazolyl)phenyl]-3-trifluoromethyl-1H-pyrazole], 103 to 107 °C. The result for `Cc1ccc(-c2ccc(S(C)(=O)=O)cc2)n1-c1ccc(-c2ccsc2)cc1` [Example 46, 2-Methyl-5-[4-(methylsulfonyl)phenyl]-1-[4-(3-thienyl)phenyl]-1H-pyrrole] reads 187 to 188 °C. Next, `CS(=O)(=O)c1ccc(-n2nc(C(F)(F)F)cc2-c2ccc(-c3cocn3)cc2)cc1` (as salt: hydrochloride) [Example 95, 4-{4-[1-[4-(Methylsulfonyl)phenyl]-3-(trifluoromethyl)-1H-pyrazol-5-yl]phenyl}-1,3-oxazole]: 175 to 177 °C. In the case of `Cc1cc(-c2noc(C)c2-c2ccc(S(C)(=O)=O)c(F)c2)ccc1-c1cscn1` [Example 170, 4-[3-Fluoro-4-(methylsulfonyl)phenyl]-5-methyl-3-[3-methyl-4-(1,3-thiazol-4-yl)phenyl]isoxazole], the melting point came out at 99.5 °C.

Compound `CS(=O)(=O)c1ccc(-n2nc(C(F)(F)F)cc2-c2ccc(-c3ccco3)cc2)cc1F` [Example 60, 1-[3-Fluoro-4-(methylsulfonyl)phenyl]-5-[4-(2-furyl)phenyl]-3-(trifluoromethyl)-1H-pyrazole] gave a melting point of 129 to 130 °C. Consider `CS(=O)(=O)c1ccc(-n2nc(C(F)(F)F)cc2-c2ccc(-c3nccs3)cc2)cc1` [Example 22, 1-[4-(Methylsulfonyl)phenyl]-5-[4-(2-thiazolyl)phenyl]-3-trifluoromethyl-1H-pyrazole], for which the melting point was in the range of 206 to 207 °C.

On to `CS(=O)(=O)c1ccc(C2=C(c3ccc(-c4ccsc4)cc3)C(=O)OC2)cc1` [Example 32, 3-[4-(3-Thienyl)phenyl]4-[4-(methylsulfonyl)phenyl]-2-(5H)-furanone], for which the melting point lay in the range of 220 to 222 °C. Next, `COc1cc(-n2nc(C(F)(F)F)cc2-c2ccc(-c3ccco3)cc2)ccc1S(N)(=O)=O` (as salt: hydrochloride) [Example 148, 4-[5-[4-(2-Furyl)phenyl]-3-(trifluoromethyl)-1H-pyrazol-1-yl]-2-methoxybenzenesulfonamide]: 206.7 °C; `CS(=O)(=O)c1ccc(-n2nc(C(F)(F)F)cc2-c2ccc(-c3ccco3)c(Cl)c2)cc1` (as salt: hydrochloride) [Example 71, 1-[4-(Methylsulfonyl)phenyl]-5-[3-chloro-4-(2-furyl)phenyl]-3-(trifluoromethyl)-1H-pyrazole]: 143 to 145 °C. The result for `Cc1cc(-c2cc(C(F)(F)F)nn2-c2ccc(S(C)(=O)=O)cc2)ccc1-c1cscn1` (as salt: hydrochloride) [Example 125, 4-{2-Methyl-4-[1-[4-(methylsulfonyl)phenyl]-3-(trifluoromethyl)-1H-pyrazol-5-yl]phenyl}-1,3-thiazole] reads 140 to 142 °C. `CS(=O)(=O)c1ccc(-n2nc(C(F)(F)F)cc2-c2ccc(-c3cc4ccccc4o3)cc2)cc1` [Example 4, 1-[4-(Methylsulfonyl)phenyl]-5-[4-(benzo[b]furan-2-yl)phenyl]-3-trifluoromethyl-1H-pyrazole]: the melting point was in the range of 137 to 138 °C. Next, `COc1cc(-c2cc(C(F)(F)F)nn2-c2ccc(S(C)(=O)=O)cc2)ccc1-c1cscn1` (as salt: hydrochloride) [Example 120, 4-{2-Methoxy-4-[1-[4-(methylsulfonyl)phenyl]-3-(trifluoromethyl)-1H-pyrazol-5-yl]phenyl}-1,3-thiazole]: 164 to 166 °C; `Cc1cc(-c2cc(C(F)(F)F)nn2-c2ccc(S(C)(=O)=O)cc2)ccc1-c1cocn1` (as salt: hydrochloride) [Example 112, 4-{2-Methyl-4-[1-[4-(methylsulfonyl)phenyl]-3-(trifluoromethyl)-1H-pyrazol-5-yl]phenyl}-1,3-oxazole]: 148 to 150 °C. In turn, `CCOC(=O)c1cc(-c2ccc(-c3ccco3)cc2)n(-c2ccc(S(C)(=O)=O)c(F)c2)n1` [Example 126, Ethyl 1-[3-Fluoro-4-(methylsulfonyl)phenyl]-5-[4-(2-furyl)phenyl]-1H-pyrazole-3-carboxylate] had a melting point of 172 °C. Next, `Cc1cc(-n2nc(C(F)(F)F)cc2-c2ccc(-c3ccco3)cc2)ccc1S(C)(=O)=O` (as salt: hydrochloride) [Example 157, 5-[4-(2-Furyl)phenyl]-1-[3-methyl-4-(methylsulfonyl)phenyl]-3-(trifluoromethyl)-1H-pyrazole]: 135 to 139 °C; `Cc1onc(-c2ccc(-c3cscn3)cc2)c1-c1ccc(S(N)(=O)=O)cc1` [Example 171, 4-{5-Methyl-3-[4-(1,3-thiazol-4-yl)phenyl]-4-isoxazolyl}benzenesulfonamide]: 112 to 115 °C; `Cc1ccc(-c2ccc(S(C)(=O)=O)c(F)c2)n1-c1ccc(-c2ccoc2)cc1` [Example 36, 5-[3-Fluoro-4-(methylsulfonyl)phenyl]-1-[4-(3-furyl)phenyl]-2-methyl-1H-pyrrole]: 147 to 150 °C. For `CS(=O)(=O)c1ccc(-n2nc(C(F)(F)F)cc2-c2ccc(-c3cscn3)cc2)cc1F` [Example 99, 4-{4-[1-[3-Fluoro-4-(methylsulfonyl)phenyl]-3-(trifluoromethyl)-1H-pyrazol-5-yl]phenyl}-1,3-thiazole], the melting point is 125 to 127 °C. Turning to `CCOc1cc(-n2nc(C(=O)O)cc2-c2ccc(-c3ccco3)cc2)ccc1S(C)(=O)=O` [Example 127, 1-[3-Ethoxy-4-(methylsulfonyl)phenyl]-5-[4-(2-furyl)phenyl]-1H-pyrazole-3-carboxylic Acid], the melting point is 256 to 257 °C. For the compound `Cc1cc(-c2cscn2)ccc1-c1cc(C(F)(F)F)nn1-c1ccc(S(C)(=O)=O)cc1` (as salt: methanesulfonate) [Example 186, 1-[4-(Methylsulfonyl)phenyl]-5-[2-methyl-4-(4-thiazolyl)phenyl]-3-trifluoromethyl-1H-pyrazole], the melting point was 174.7 °C.

As for `Cc1onc(-c2ccc(S(C)(=O)=O)cc2)c1-c1ccc(-c2cscn2)cc1` [Example 189, 5-Methyl-3-[4-(methylsulfonyl)phenyl]-4-[4-(1,3-thiazol-4-yl)phenyl]isoxazole], the melting point came to 159 °C. Next, `Cc1cc(-c2ccc(-c3ccoc3)cc2)n(-c2ccc(S(C)(=O)=O)cc2)c1` [Example 56, 2-[4-(3-Furyl)phenyl]-4-methyl-1-[4-(methylsulfonyl)phenyl]-1H-pyrrole]: 193 to 195 °C; `NS(=O)(=O)c1ccc(-n2nc(C(F)(F)F)cc2-c2ccc(-c3ccco3)cc2)c(F)c1` (as salt: hydrochloride) [Example 141, 3-Fluoro-4-[5-[4-(2-furyl)phenyl]-3-(trifluoromethyl)-1H-pyrazol-1-yl]benzenesulfonamide]: 174.4 °C.

`Cc1onc(-c2ccc(-c3cscn3)cc2)c1-c1ccc(S(N)(=O)=O)c(F)c1` [Example 172, 2-Fluoro-4-{5-methyl-3-[4-(1,3-thiazol-4-yl)phenyl]-4-isoxazolyl}benzenesulfonamide] registered a melting point of 216 °C. `CONC(=O)c1cc(-c2ccc(-c3ccco3)cc2)n(-c2ccc(S(C)(=O)=O)c(F)c2)n1` (as salt: hydrochloride) [Example 134, N-Methoxy-1-[3-fluoro-4-(methylsulfonyl)phenyl]-5-[4-(2-furyl)phenyl]-1H-pyrazole-3-carboxamide] registered a melting point of 126 to 128 °C. The result for `Cc1cn(-c2ccc(S(N)(=O)=O)c(F)c2)c(-c2ccc(-c3cscn3)cc2)n1` [Example 179, 2-Fluoro-4-[4-methyl-2-[4-(4-thiazolyl)phenyl]-1H-imidazol-1-yl]benzenesulfonamide] reads 145 to 147 °C; that for `NS(=O)(=O)c1ccc(-n2nc(C(F)(F)F)cc2-c2ccc(-c3ncco3)cc2)cc1` (as salt: hydrochloride) [Example 98, 4-[5-[4-(1,3-Oxazol-2-yl)phenyl]-3-(trifluoromethyl)-1H-pyrazol-1-yl]benzenesulfonamide], 215 to 217 °C; that for `NS(=O)(=O)c1ccc(-n2nc(C(F)(F)F)cc2-c2ccc(-c3cscn3)c(C(F)(F)F)c2)cc1F` [Example 176, 2-Fluoro-4-[5-[4-(1,3-thiazol-4-yl)-3-(trifluoromethyl)phenyl]-3-(trifluoromethyl)-1H-pyrazol-1-yl]benzenesulfonamide], 140 to 142 °C.
